The target of the experiment is T1, human β3-adrenergic receptor (Homo sapiens, UniProt P13945).
T1 construct: Full length β3 AR clones (402 amino acids) containing the last 6 amino acids of hβ3—AR are prepared; expressed in transfected cells; host or cells: CHO cells
Description: cAMP response (SPA kit) in CHO cells transfected with human β3 adrenergic receptor. The class given is cell-based. The note with it: for EC50: CHO cells expressing human β3-AR, 10^-9 M to 10^-5 M, 30 min at 37° C., cAMP by SPA, read-out: EC50(β3); for IA(β3): maximal response of compound compared to maximal response of isoproterenol at 10^-5 M, CHO cells, human β3-AR.

We go through 24 compounds from patent publication US6451814B1, “Heterocyclic β-3 adrenergic receptor agonists” (Wyeth, priority 2000, dated 2002).

T1 sequence (P13945 whole entry): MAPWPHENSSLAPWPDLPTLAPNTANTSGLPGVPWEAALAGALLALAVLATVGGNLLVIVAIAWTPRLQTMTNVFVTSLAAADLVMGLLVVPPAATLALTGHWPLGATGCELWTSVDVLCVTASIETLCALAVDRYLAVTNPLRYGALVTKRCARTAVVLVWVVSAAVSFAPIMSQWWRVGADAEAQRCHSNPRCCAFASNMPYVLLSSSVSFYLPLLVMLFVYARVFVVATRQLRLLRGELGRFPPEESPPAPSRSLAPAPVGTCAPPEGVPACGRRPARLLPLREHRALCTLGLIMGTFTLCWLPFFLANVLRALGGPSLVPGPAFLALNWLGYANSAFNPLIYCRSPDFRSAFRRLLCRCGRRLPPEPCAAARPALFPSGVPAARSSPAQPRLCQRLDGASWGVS

One may read the EC50 as the concentration needed to bring the measured effect to its halfway point. Take `O=C(NCc1ccc(Cl)c(Cl)c1)N1CCC(Nc2ccc(CCNC[C@H](O)COc3ccc(O)cc3)cc2)CC1` [Example 21, 4-(4-{2-[(2S)-2-Hydroxy-3-(4-hydroxy-phenoxy)-propylamino]-ethyl}-phenylamino)-piperidine-1-carboxylic Acid 3,4-dichloro-benzylamide]: the EC50 came out at 0.03 µM and the “IA(β3)” value was found to be 1. The matching figures for `CC(=O)Nc1nc(C)c(S(=O)(=O)N2CCC(Nc3ccc(CCNC[C@H](O)c4ccc(O)c(NS(C)(=O)=O)c4)cc3)CC2)s1` [Example 115, N-(5-{[4-(4-{2-[((2R)-2-hydroxy-2-{4-hydroxy-3-[(methylsulfonyl)amino]phenyl}-ethyl)amino]ethyl}anilino)piperidin-1-yl]sulfonyl}-4-methyl-1,3-thiazol-2-yl)acetamide]: 0.013 µM and 0.97. Regarding `O=C(NCc1ccc(F)cc1F)N1CCC(Nc2ccc(CCNC[C@H](O)COc3ccc(O)cc3)cc2)CC1` [Example 80, 4-(4-{2-[(2S)-2-Hydroxy-3-(4-hydroxy-phenoxy)-propylamino]-ethyl}-phenylamino)-piperidine-1-carboxylic acid 2,4-difluoro-benzylamide], the “IA(β3)” value was 0.84. As to `CS(=O)(=O)Nc1cc([C@@H](O)CNCCc2ccc(NC3CCN(c4nc(-c5ccccc5)cs4)CC3)cc2)ccc1O` [Example 118, (R)-N-{2-Hydroxy-5-[1-hydroxy-2-(2-{4-[1-(4-phenyl-thiazol-2-yl)-piperidin-4-ylamino]-phenyl}-ethylamino)-ethyl]-phenyl}-methanesulfonamide], the EC50 is 0.022 µM and the “IA(β3)” value was determined as 0.96. For the compound `O=C(O)C1CCN(C(=O)N2CCC(Nc3ccc(CCNC[C@H](O)COc4ccc(O)cc4)cc3)CC2)CC1` [Example 62, 1-[4-(4-{2-[(2S)-2-Hydroxy-3-(4-hydroxy-phenoxy)-propylamino]-ethyl}-phenylamino)-piperidine-1-carbonyl]-piperidine-4-carboxylic acid], the EC50 turned out to be 0.134 µM and the “IA(β3)” value was determined as 1.05. Consider `O=C(O)COc1ccc(CNC(=O)N2CCC(Nc3ccc(CCNC[C@H](O)COc4ccc(O)cc4)cc3)CC2)c(F)c1` [Example 86, [3-Fluoro-4-[[[[4-[[4-[2-[[(S)-2-hydroxy-3-(4-hydroxyphenoxy)propyl]amino]ethyl]phenyl]amino]-1-piperidinyl]carbonyl]amino]methyl]phenoxy]acetic Acid], for which the EC50 stood at 0.127 µM and the “IA(β3)” value worked out at 1.1. Taken in the same sequence, the figures for `O=C(NCc1ccc(F)cc1)N1CCC(Nc2ccc(CCNC[C@H](O)COc3cccc(O)c3)cc2)CC1` [Example 85, 4-(4-{2-[(2S)-2-Hydroxy-3-(3-hydroxy-phenoxy)-propylamino]-ethyl}-phenylamino)-piperidine-1-carboxylic Acid 4-fluoro-benzylamide] were 0.003 µM and 0.82. As for `O=C(NCc1ccc(Cl)cc1Cl)N1CCC(Nc2ccc(CCNC[C@H](O)COc3ccc(O)cc3)cc2)CC1` [Example 20, 4-(4-{2-[(2S)-2-Hydroxy-3-(4-hydroxy-phenoxy)-propylamino]-ethyl}-phenylamino)-piperidine-1-carboxylic Acid 2,4-dichloro-benzylamide], the “IA(β3)” value was 0.91.

As to `O=C(NCC1(c2ccccc2)CCCC1)N1CCC(S(=O)(=O)c2ccc(CCNC[C@H](O)COc3ccc(O)cc3)cc2)CC1` [Example 46, 4-(4-{2-[(2S)-2-Hydroxy-3-(4-hydroxy-phenoxy)-propylamino]-ethyl}-benzenesulfonyl)-piperidine-1-carboxylic Acid (1-phenyl-cyclopentylmethyl)-amide], the EC50 is 0.162 µM and the “IA(β3)” value turned out to be 0.82. The matching figures for `O=C(NCCc1cccc(F)c1)N1CCC(Nc2ccc(CCNC[C@H](O)COc3ccc(O)cc3)cc2)CC1` [Example 88, 4-(4-{2-[(2S)-2-Hydroxy-3-(4-hydroxy-phenoxy)-propylamino]-ethyl}-phenylamino)-piperidine-1-carboxylic Acid [2-(3-fluoro-phenyl)-ethyl]-amide]: 0.021 µM and 0.81. Consider `CCCCCCNC(=O)Nc1ccc(S(=O)(=O)N2CCC(Nc3ccc(CCNC[C@H](O)COc4ccc(O)cc4)cc3)CC2)cc1` [Example 108, 1-Hexyl-3-{4-[4-(4-{2-[(2S)-2-hydroxy-3-(4-hydroxy-phenoxy)-propylamino]-ethyl}-phenylamino)-piperidine-1-sulfonyl]-phenyl}-urea], for which the EC50 was 0.007 µM and the “IA(β3)” value is listed as 1.08.

With `CCCCCCCCNC(=O)N1CCC(N(C(C)=O)c2ccc(CCNC[C@H](O)COc3ccc(O)cc3)cc2)CC1` [Example 8, 4-[Acetyl-(4-{2-[(2S)-2-hydroxy-3-(4-hydroxy-phenoxy)-propylamino]-ethyl}-phenyl)-amino]-piperidine-1-carboxylic Acid Octylamide], the EC50 amounted to 0.064 µM and the “IA(β3)” value worked out at 0.82. On to `CS(=O)(=O)Nc1cc([C@@H](O)CNCCc2ccc(NC3CCN(C(=O)N4CCC(C(=O)O)CC4)CC3)cc2)ccc1O` [Example 52, 1-[4-(4-{2-[(2R)-2-Hydroxy-2-(4-hydroxy-3-methanesulfonylamino-phenyl)-ethylamino]-ethyl}-phenylamino)-piperidine-1-carbonyl]-piperidine-4-carboxylic Acid], for which the EC50 came to 0.069 µM and the “IA(β3)” value is 0.82. For the compound `CCCCCCNC(=O)N1CCC(S(=O)(=O)c2ccc(CCNC[C@H](O)COc3ccc(O)cc3)cc2)CC1` [Example 44, 4-(4-{2-[(2S)-2-Hydroxy-3-(4-hydroxy-phenoxy)-propylamino]-ethyl}-benzenesulfonyl)-piperidine-1-carboxylic Acid Hexylamide], the EC50 is 0.036 µM and the “IA(β3)” value is listed as 0.99.

As for `CCN(CC)C(=O)CCNC(=O)N1CCC(Nc2ccc(CCNC[C@H](O)COc3ccc(O)cc3)cc2)CC1` [Example 89, 4-(4-{2-[(2S)-2-Hydroxy-3-(4-hydroxy-phenoxy)-propylamino]-ethyl}-phenylamino)-piperidine-1-carboxylic Acid (2-diethylcarbamoyl-ethyl)-amide], the EC50 is 0.093 µM and the “IA(β3)” value came out at 0.83. With `Oc1ccc(OC[C@@H](O)CNCCc2ccc(NC3CCN(c4nc(-c5ccccc5)cs4)CC3)cc2)cc1` [Example 117, 4-[(2S)-2-Hydroxy-3-(2-{4-[1l-(4-phenyl-thiazol-2-yl)-piperidin-4-ylamino]-phenyl}-ethylamino)-propoxy]-phenol], the EC50 amounted to 0.208 µM and the “IA(β3)” value amounted to 1.1. Consider `CC(=O)Nc1ccc(S(=O)(=O)N2CCC(Nc3ccc(CCNC[C@H](O)COc4ccc(O)cc4)cc3)CC2)cc1` [Example 114, N-{4-[4-(4-{2-[(2S)-2-Hydroxy-3-(4-hydroxy-phenoxy)-propylamino]-ethyl}-phenylamino)-piperidine-1-sulfonyl]-phenyl}-acetamide], for which the EC50 came to 0.033 µM and the “IA(β3)” value amounted to 1.1. Take `O=C(NCCCC1CCCC1)N1CCC(Nc2ccc(CCNC[C@H](O)COc3ccc(O)cc3)cc2)CC1` [Example 12, 1-4-(4-{2-[(2S)-2-Hydroxy-3-(4-hydroxy-phenoxy)-propylamino]-ethyl}-phenylamino)-piperidine-1-carboxylic Acid (3-cyclopentyl-propyl)-amide]: the EC50 worked out at 0.05 µM. On to `O=C(NCc1ccc(F)cc1)N1CCC(Oc2ccc(CCNC[C@H](O)COc3ccc(O)cc3)cc2)CC1` [Example 56, 4-(4-{2-[(2S)2-Hydroxy-3-(4-hydroxy-phenoxy)-propylamino]-ethyl}-phenoxy)-piperidine-1-carboxylic Acid 4-fluoro-benzylamide], for which the EC50 is 0.052 µM and the “IA(β3)” value is on record as 0.84. `O=C(NCc1ccc(O)cc1F)N1CCC(Nc2ccc(CCNCC(O)COc3ccc(O)cc3)cc2)CC1` (centres unmarked) [Example 83, 4-(4-{2-[2-Hydroxy-3-(4-hydroxy-phenoxy)-propylamino]-ethyl}-phenylamino)-piperidine-1-carboxylic Acid 2-fluoro-4-hydroxy-benzylamide]: the “IA(β3)” value was 0.88. For `CCNC(=O)N1CCC(Nc2ccc(CCNC[C@H](O)COc3ccc(O)cc3)cc2)CC1` [Example 10, 4-(4-{2-[(2S)-2-Hydroxy-3-(4-hydroxy-phenoxy)-propylamino]-ethyl}-phenylamino)-piperidine-1-carboxylic Acid Ethylamide], the EC50 was 0.043 µM and the “IA(β3)” value turned out to be 0.85. `O=C(NCc1ccc(O)cc1F)N1CCC(Nc2ccc(CCNC[C@H](O)COc3cccc(O)c3)cc2)CC1` [Example 87, 4-(4-{2-[(2S)-2-Hydroxy-3-(3-hydroxy-phenoxy)-propylamino]-ethyl}-phenylamino)-piperidine-1-carboxylic Acid 2-fluoro-4-hydroxy-benzylamide]: the EC50 stood at 0.004 µM and the “IA(β3)” value came out at 0.84. The matching figures for `O=C(NCc1ccc(F)cc1)N1CCC(S(=O)(=O)c2ccc(CCNC[C@H](O)COc3ccc(O)cc3)cc2)CC1` [Example 45, 4-(4-{2-[(2S)-2-Hydroxy-3-(4-hydroxy-phenoxy)-propylamino]-ethyl}-benzenesulfonyl)-piperidine-1-carboxylic Acid 4-fluoro-benzylamide]: 0.064 µM and 1.07. Turning to `Cc1sccc1C(=O)N1CCC(S(=O)(=O)c2ccc(CCNC[C@H](O)COc3ccc(O)cc3)cc2)CC1` [Example 107, [4-(4-{2-[(2S)-2-Hydroxy-3-(4-hydroxy-phenoxy)-propylamino]-ethyl}benenesulfonyl)-piperidin-1-yl]-(2-methyl-thiophen-3-yl)-methanone], the EC50 amounted to 0.04 µM and the “IA(β3)” value is recorded as 0.92.
